Test results as given in patent publication US11795177B2, “Substituted quinoline analogs as aldehyde dehydrogenase 1A1 (ALDH1A1) inhibitors” (THE UNITED STATES OF AMERICA, AS REPRESENTED BY THE …, priority 2017, dated 2023).
Structures can show the parent of a compound that is named as a salt.

Columns and labels:
[1] = molecular target: T1, ALDH1A1 enzyme (Homo sapiens, UniProt P00352); assay: ALDH1A1 enzymatic assay (in vitro); format: biochemical; conditions: ALDH1A1 enzyme 20 nM, NAD+ 1 mM, propionaldehyde 80 μM; read-out: ALDH1A1 IC50
T1 sequence (P00352 1-501): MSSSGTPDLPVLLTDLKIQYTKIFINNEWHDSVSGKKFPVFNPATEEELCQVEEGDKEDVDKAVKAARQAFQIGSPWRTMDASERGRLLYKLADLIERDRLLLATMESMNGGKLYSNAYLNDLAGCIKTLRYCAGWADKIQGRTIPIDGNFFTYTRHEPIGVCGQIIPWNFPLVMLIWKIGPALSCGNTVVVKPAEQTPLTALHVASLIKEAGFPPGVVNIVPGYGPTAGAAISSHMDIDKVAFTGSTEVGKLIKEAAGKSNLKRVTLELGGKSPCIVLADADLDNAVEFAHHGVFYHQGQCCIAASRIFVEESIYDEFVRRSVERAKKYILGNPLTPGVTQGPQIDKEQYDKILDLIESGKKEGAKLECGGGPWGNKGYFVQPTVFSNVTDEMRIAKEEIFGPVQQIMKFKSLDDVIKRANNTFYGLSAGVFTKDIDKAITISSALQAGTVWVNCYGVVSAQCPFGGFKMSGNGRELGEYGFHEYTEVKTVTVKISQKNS
Summary of the method: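 ALDH1A1 (20 nM final) in 100 mM HEPES pH 7.5, 0.01% Tween 20 was preincubated 15 min at RT with compound (968 pM–57.2 μM final), then started with 1 mM NAD+ and 80 μM propionaldehyde. NADH fluorescence (ex 340/em 450 nm) followed kinetically for 10 min; change normalized to no-inhibitor and no-enzyme controls for percent inhibition and curve fitting.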

[2] = system: MIA PaCa-2 cells; assay: MIA PaCa2 cell-based assay (1,536-well high-content imaging ALDEFLUOR assay); parameters: species or system human; conditions: Homo sapiens, 0.5 h, ALDEFLUOR BAAA substrate 500 nM, 30 minutes
Summary of the method: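 MIA PaCa-2 cells (1,000/well), plated overnight, given BAAA substrate (500 nM) plus Hoechst 33342 (0.5 nM), then compound (16-point, 1.4 nM–47.8 μM final; 0.5% DMSO). After 30 min at 37° C, ALDH activity imaged by high-content microscopy as BAA-retaining (FITC) cells versus Hoechst-stained nuclei.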

Row | SMILES | IC50 [1] [nM] | IC50 [2] [nM]
1 | N#CC1(c2ccccc2)CCN(c2c(C(=O)N3CC4(CC(O)C4)C3)cnc3ccc(F)cc23)CC1 [Cpd. 329, 1-(6-fluoro-3-(6-hydroxy-2-azaspiro[3.3]heptane-2-carbonyl)quinolin-4-yl)-4-phenylpiperidine-4-carbonitrile] | < 500 | < 500
2 | CS(=O)(=O)N1CCN(C(=O)c2cnc3c(F)c(F)c(F)cc3c2N2CCC3(CC2)OCCO3)CC1 [Example 134, (4-(methylsulfonyl)piperazin-1-yl)(6,7,8-trifluoro-4-(1,4-dioxa-8-azaspiro[4.5]decan-8-yl)quinolin-3-yl)methanone] | < 500 | 1000 to 10000
3 | CC1(C#N)CCN(c2c(C(=O)N3CCC(C(=O)C4CC4)CC3)cnc3c(F)cc(F)cc23)CC1 [Example 195, 1-(3-(4-(cyclopropanecarbonyl)piperidine-1-carbonyl)-6,8-difluoroquinolin-4-yl)-4-methylpiperidine-4-carbonitrile] | < 500 | 1000 to 10000
4 | CN(C)S(=O)(=O)N1CCN(C(=O)c2cnc3ccc(F)cc3c2N2CCC3(CC2)OCCO3)CC1 [Example 152, 4-(6-fluoro-4-(1,4-dioxa-8-azaspiro[4.5]decan-8-yl)quinoline-3-carbonyl)-N,N-dimethylpiperazine-1-sulfonamide] | < 500 | 500 to 1000
5 | N#CC1(c2ccc(-c3c(C(=O)Nc4cnn(CC(N)=O)c4)cnc4ccc(F)cc34)cc2)CC1 [Cpd. 342, N-(1-(2-amino-2-oxoethyl)-1H-pyrazol-4-yl)-4-(4-(1-cyanocyclopropyl)phenyl)-6-fluoroquinoline-3-carboxamide] | < 500 | 500 to 1000
6 | COc1ccc2ncc(C(=O)N3CCN(C(=O)C4CC4)CC3)c(N3CCC(F)(F)CC3)c2c1 [Example 44, (4-(cyclopropanecarbonyl)piperazin-1-yl)(4-(4,4-difluoropiperidin-1-yl)-6-methoxyquinolin-3-yl)methanone] | > 10000 | > 10000
7 | CS(=O)(=O)N1CCN(C(=O)c2cnc3cc(F)c(F)cc3c2N2CCC3(CC2)OCCO3)CC1 [Example 132, (6,7-difluoro-4-(1,4-dioxa-8-azaspiro[4.5]decan-8-yl)quinolin-3-yl)(4-(methylsulfonyl)piperazin-1-yl)methanone] | < 500 | 1000 to 10000
8 | CCOC(=O)N1CCN(C(=O)c2cnc3cc(OC)c(OC)cc3c2N2CCC(C)(C#N)CC2)CC1 [Example 116, Ethyl 4-(4-(4-cyano-4-methylpiperidin-1-yl)-6,7-dimethoxyquinoline-3-carbonyl)piperazine-1-carboxylate] | < 500 | 1000 to 10000
9 | CCC(=O)N1CCN(C(=O)c2cnc3ccc(F)cc3c2N2CCC3(CC2)OCCO3)CC1 [Example 70, 1-(4-(6-fluoro-4-(1,4-dioxa-8-azaspiro[4.5]decan-8-yl)quinoline-3-carbonyl)piperazin-1-yl)propan-1-one] | < 500 | 1000 to 10000
10 | COc1ccc2ncc(C(=O)N3C[C@@H](C)O[C@@H](C)C3)c(N3CCC4(CC3)OCCO4)c2c1 [Example 33, ((2S*,6R*)-2,6-dimethylmorpholino)(6-methoxy-4-(1,4-dioxa-8-azaspiro[4.5]decan-8-yl)quinolin-3-yl)methanone] | 1000 to 10000 | > 10000
11 | COc1cc2ncc(C(=O)N3CCN(C(=O)C(C)C)CC3)c(N3CCC(C)(C#N)CC3)c2cc1OC [Example 111, 1-(3-(4-isobutyrylpiperazine-1-carbonyl)-6,7-dimethoxyquinolin-4-yl)-4-methylpiperidine-4-carbonitrile] | < 500 | 1000 to 10000
12 | CC1(C#N)CCN(c2c(C(=O)N3CCN(C(=O)C4CC4)CC3)cnc3c(F)cc(F)cc23)CC1 [Example 125, 1-(3-(4-(cyclopropanecarbonyl)piperazine-1-carbonyl)-6,8-difluoroquinolin-4-yl)-4-methylpiperidine-4-carbonitrile] | < 500 | 1000 to 10000
13 | COc1ccc2ncc(C(=O)N3CCC(OC)CC3)c(N3CCC(OC)CC3)c2c1 [Example 4, (6-methoxy-4-(4-methoxypiperidin-1-yl)quinolin-3-yl)(4-methoxypiperidin-1-yl)methanone, TFA] | < 500 | 1000 to 10000
14 | COc1ccc2c(N3CCC(C)(C#N)CC3)c(C(=O)N3CCN(S(C)(=O)=O)CC3)cnc2c1 [Example 105, 1-(7-methoxy-3-(4-(methylsulfonyl)piperazine-1-carbonyl)quinolin-4-yl)-4-methylpiperidine-4-carbonitrile] | < 500 | 1000 to 10000

Continued, values first:

Row | IC50 [1] [nM] | IC50 [2] [nM] | SMILES
15 | < 500 | < 500 | N#CC1(c2ccccc2)CCN(c2c(C(=O)N[C@H]3CC[C@H](O)CC3)cnc3ccc(F)cc23)CC1 [Cpd. 325, 4-(4-cyano-4-phenylpiperidin-1-yl)-6-fluoro-N-((1R,4R)-4-hydroxycyclohexyl)quinoline-3-carboxamide]
16 | < 500 | 500 to 1000 | CN(C)C(=O)N1CCN(C(=O)c2cnc3ccc(F)cc3c2N2CCC3(CC2)OCCO3)CC1 [Example 179, 4-(6-fluoro-4-(1,4-dioxa-8-azaspiro[4.5]decan-8-yl)quinoline-3-carbonyl)-N,N-dimethylpiperazine-1-carboxamide]
17 | < 500 | > 10000 | COc1ccc2ncc(C(=O)N3CCN(C(=O)C4CC4)CC3)c(N3CCC4(CCCO4)CC3)c2c1 [Example 24, (4-(cyclopropanecarbonyl)piperazin-1-yl)(6-methoxy-4-(1-oxa-8-azaspiro[4.5]decan-8-yl)quinolin-3-yl)methanone]
18 | < 500 | 1000 to 10000 | CCS(=O)(=O)N1CCN(C(=O)c2cnc3c(cnn3C)c2N2CCC(C)(C#N)CC2)CC1 [Example 207, 1-(5-(4-(ethylsulfonyl)piperazine-1-carbonyl)-1-methyl-1H-pyrazolo[3,4-b]pyridin-4-yl)-4-methylpiperidine-4-carbonitrile]
19 | < 500 | > 10000 | CCOC(=O)N1CCN(C(=O)c2cnc3ccc(F)cc3c2N2CCC(C)(C#N)CC2)CC1 [Example 88, Ethyl 4-(4-(4-cyano-4-methylpiperidin-1-yl)-6-fluoroquinoline-3-carbonyl)piperazine-1-carboxylate]
20 | < 500 | 1000 to 10000 | CCS(=O)(=O)N1CCN(C(=O)c2cnc3c(F)cc(F)cc3c2N2CCC3(CC2)OCCO3)CC1 [Example 161, (6,8-difluoro-4-(1,4-dioxa-8-azaspiro[4.5]decan-8-yl)quinolin-3-yl)(4-(ethylsulfonyl)piperazin-1-yl)methanone]
21 | < 500 | 1000 to 10000 | CC1(C#N)CCN(c2c(C(=O)N3CCC(C(=O)C4CC4)CC3)cnc3cc(F)c(F)cc23)CC1 [Example 196, 1-(3-(4-(cyclopropanecareonyl)piperidine-1-carbonyl)-6,7-difluoroquinolin-4-yl)-4-methylpiperidine-4-carbonitrile]
22 | < 500 | 1000 to 10000 | CS(=O)(=O)N1CCN(C(=O)c2cnc3c(F)cc(F)cc3c2N2CCC3(CC2)OCCO3)CC1 [Example 131, (6,8-difluoro-4-(1,4-dioxa-8-azaspiro[4.5]decan-8-yl)quinolin-3-yl)(4-(methylsulfonyl)piperazin-1-yl)methanone]
23 | < 500 | < 500 | CN(C)C(=O)N1CCN(C(=O)c2cnc3ccsc3c2N2CCC(C#N)(c3ccccc3)CC2)CC1 [Example 289, 4-(7-(4-cyano-4-phenylpiperidin-1-yl)thieno[3,2-b]pyridine-6-carbonyl)-N,N-dimethylpiperazine-1-carboxamide]
24 | < 500 | < 500 | CN(C)C(=O)N1CCN(C(=O)c2cnc3ccc(Cl)cc3c2-c2ccc(C3(C#N)CC3)cc2)CC1 [Example 296, 4-(6-chloro-4-(4-(1-cyanocyclopropyl)phenyl)quinoline-3-carbonyl)-N,N-dimethylpiperazine-1-carboxamide]
25 | < 500 | > 10000 | COc1ccc2ncc(C(=O)N3CCN(C(=O)C4CC4)CC3)c(N3CCC(C)(OC)CC3)c2c1 [Example 26, (4-(cyclopropanecarbonyl)piperazin-1-yl)(6-methoxy-4-(4-methoxy-4-methylpiperidin-1-yl)quinolin-3-yl)methanone]
26 | < 500 | 1000 to 10000 | CC1(C#N)CCN(c2c(C(=O)N3CCN(C(=O)C4CC4)CC3)cnc3ccccc23)CC1 [Example 93, 1-(3-(4-(cyclopropanecarbonyl)piperazine-1-carbonyl)quinolin-4-yl)-4-methylpiperidine-4-carbonitrile]
27 | < 500 | 1000 to 10000 | C[C@H]1CN(C(=O)c2cnc3ccc(F)cc3c2N2CCC(C)(C#N)CC2)CCN1C(=O)C1CC1 [Example 227, (S)-1-(3-(4-(cyclopropanecarbonyl)-3-methylpiperazine-1-carbonyl)-6-fluoroquinolin-4-yl)-4-methylpiperidine-4-carbonitrile]
